Data published in ChEMBL document CHEMBL1201862, “PubChem BioAssay data set” (2004).
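Method: 48-hour compound exposure of cells in 96-well plates, five concentrations, linear interpolation of endpoints. Abbreviation: GI50, concentration required for 50% inhibition of growth.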 Active and inactive are the calls of the source. Rule as the data show it: active = GI50 up to about 1.1 µM and inactive = higher.

Assays:
Test in all cases: inhibition of tumour cell growth, NCI panel, 48 h
TK-10 = tested on: TK-10
NCI-H226 = tested on: NCI-H226
HOP-92 = tested on: HOP-92
MDA-MB-231 = tested on: MDA-MB-231
ACHN = tested on: ACHN
DU-145 = tested on: DU-145
T47D = tested on: T47D
Hs-578T = tested on: Hs-578T
NCI/ADR-RES = tested on: NCI/ADR-RES
SR = tested on: SR
MCF7 = tested on: MCF7
UACC-62 = tested on: UACC-62
M14 = tested on: M14
786-0 = tested on: 786-0
DMS-114 = tested on: DMS-114
M19-MEL = tested on: M19-MEL
DLD-1 = tested on: DLD-1

Measured: GI50

COc1ccc(C(=C2C=CC=C2)c2ccc(OC)cc2)cc1
inactive: TK-10 50.4 µM | NCI-H226 50.5 µM | HOP-92 27.8 µM | MDA-MB-231 16.1 µM | ACHN 36.7 µM | DU-145 40.7 µM | T47D 24.2 µM | Hs-578T 33.6 µM | NCI/ADR-RES 47.3 µM | SR 25.9 µM | MCF7 13.1 µM | UACC-62 33.7 µM | M14 61.1 µM

CC12CCC(C(=O)OC1=O)C(C)(C)O2 (configuration not stated)
inactive: TK-10 > 100 µM | NCI-H226 > 100 µM | HOP-92 > 100 µM | ACHN > 100 µM | DU-145 > 100 µM | T47D > 100 µM | Hs-578T > 100 µM | NCI/ADR-RES > 100 µM | MCF7 > 100 µM | UACC-62 > 100 µM | M14 > 100 µM

C=CC(OC(=O)C(C)C)c1ccc(OC(=O)C(C)C)cc1 (configuration not stated)
inactive: NCI-H226 20.6 µM | HOP-92 16.7 µM | MDA-MB-231 16.4 µM | ACHN 14.6 µM | DU-145 32.9 µM | T47D 21.6 µM | Hs-578T 35.7 µM | NCI/ADR-RES 14.2 µM | SR 6.92 µM | MCF7 3.3 µM | 786-0 4.69 µM | UACC-62 15.8 µM | M14 7.67 µM

C/C(N)=N/OCc1nc(C)no1
inactive: TK-10 > 100 µM | MDA-MB-231 > 100 µM | ACHN > 100 µM | DU-145 > 100 µM | T47D > 100 µM | Hs-578T > 100 µM | NCI/ADR-RES > 100 µM | SR > 100 µM | MCF7 > 100 µM | 786-0 > 100 µM | UACC-62 > 100 µM | M14 > 100 µM

CCOC(=O)C1(C(C)=O)OC(=O)c2cnccc21 (configuration not stated)
inactive: NCI-H226 > 100 µM | HOP-92 > 100 µM | MDA-MB-231 > 100 µM | ACHN > 100 µM | DU-145 > 100 µM | T47D > 100 µM | Hs-578T > 100 µM | NCI/ADR-RES > 100 µM | SR > 100 µM | MCF7 > 100 µM | 786-0 > 100 µM | UACC-62 > 100 µM | M14 > 100 µM

CC(=N/NC(=S)Nc1c(C)n(C)n(-c2ccccc2)c1=O)/C(C)=N\NC(=S)Nc1c(C)n(C)n(-c2ccccc2)c1=O
inactive: TK-10 > 100 µM | NCI-H226 > 100 µM | HOP-92 > 100 µM | MDA-MB-231 > 100 µM | ACHN > 100 µM | DU-145 > 100 µM | T47D > 100 µM | Hs-578T > 100 µM | NCI/ADR-RES > 100 µM | SR > 100 µM | 786-0 > 100 µM | UACC-62 > 100 µM | M14 > 100 µM

COP(=O)(OC)C(Cc1c[nH]c2ccccc12)NC(=O)OCc1ccccc1 (configuration not stated)
inactive: TK-10 > 100 µM | NCI-H226 > 100 µM | HOP-92 > 100 µM | MDA-MB-231 > 100 µM | ACHN > 100 µM | DU-145 > 100 µM | T47D 71.3 µM | Hs-578T > 100 µM | NCI/ADR-RES > 100 µM | SR > 100 µM | MCF7 > 100 µM | M14 > 100 µM

COc1ccc(-c2c3c(nc4[nH]c(=S)[nH]c(=S)c24)CCCC3)cc1OC
inactive: TK-10 17.6 µM | MDA-MB-231 18 µM | ACHN 51.1 µM | DU-145 35.8 µM | T47D 25.9 µM | Hs-578T 13.3 µM | NCI/ADR-RES 21.5 µM | SR 27.9 µM | MCF7 29.6 µM | UACC-62 19.6 µM | M14 28.6 µM

Oc1[nH]c(Nc2cccc(Br)c2)nc2ncnc1-2
inactive: TK-10 87.1 µM | NCI-H226 > 100 µM | HOP-92 52 µM | MDA-MB-231 55.6 µM | ACHN > 100 µM | DU-145 73.3 µM | T47D 98.4 µM | Hs-578T 55.3 µM | NCI/ADR-RES > 100 µM | SR 76.4 µM | MCF7 > 100 µM | 786-0 > 100 µM | UACC-62 > 100 µM | M14 > 100 µM

O=C(O)c1c[nH]c2c(=O)[nH]cnc12
inactive: TK-10 > 100 µM | HOP-92 > 100 µM | ACHN > 100 µM | DMS-114 > 100 µM | SR > 100 µM | M19-MEL > 100 µM | DLD-1 > 100 µM | 786-0 > 100 µM | UACC-62 > 100 µM | M14 > 100 µM

CN(C)/N=C(/CC(O)(C(F)(F)F)C(F)(F)F)c1ccc([N+](=O)[O-])cc1
inactive: NCI-H226 > 100 µM | HOP-92 > 100 µM | MDA-MB-231 > 100 µM | ACHN > 100 µM | DU-145 > 100 µM | T47D > 100 µM | Hs-578T > 100 µM | NCI/ADR-RES > 100 µM | SR > 100 µM | 786-0 > 100 µM | UACC-62 > 100 µM | M14 > 100 µM

c1ccc(P2c3ccccc3Nc3ccccc32)cc1
inactive: TK-10 > 100 µM | NCI-H226 99.5 µM | HOP-92 30.1 µM | MDA-MB-231 35.3 µM | ACHN 86.5 µM | DU-145 78 µM | T47D 55.2 µM | NCI/ADR-RES > 100 µM | SR 23.2 µM | MCF7 72.1 µM | 786-0 > 100 µM | UACC-62 37.8 µM | M14 66.2 µM
